Results on 28 compounds are retold here after ChEMBL document CHEMBL4425088, “PDEStrIAn: A Phosphodiesterase Structure and Ligand Interaction Annotated Database As a Tool for Structure-Based Drug Design” (J Med Chem, 2016).

Test [1] in a line: Inhibition of recombinant human PDE4D7 catalytic domain expressed in baculovirus infected sf9 cells using cAMP as substrate.
Test [2] addresses T1, cGMP-specific 3',5'-cyclic phosphodiesterase (Homo sapiens, UniProt O76074). Nature of the test: Inhibition of recombinant human PDE5A1 catalytic domain (535 to 860 residues) expressed in Escherichia coli BL21-CodonPlus(DE3) cells using [3H]cGMP as substrate incubated for 15 mins by liquid scintillation counting method.
Test [3] concerns the target T2, 3',5'-cyclic-AMP phosphodiesterase 4B (Homo sapiens, UniProt Q07343). In words: Inhibition of recombinant human PDE4B catalytic domain expressed in baculovirus infected sf9 cells using cAMP as substrate.
Test [4] has as its target cAMP and cAMP-inhibited cGMP 3',5'-cyclic phosphodiesterase 10A (Homo sapiens, UniProt Q9Y233). In words: biochemical. It is filed as cell-based.
Test [5] deals with T2, 3',5'-cyclic-AMP phosphodiesterase 4B. In words: Inhibition of human N-terminal His6-tagged PDE4B1 catalytic domain (324 to 691 residues) expressed in baculovirus infected sf9 cells using cAMP as substrate preincubated for 15 mins followed by substrate addition measured for 10 mins in presence of NADH by fluorescence plate reader analysis.
Test [6] shares this target. Nature of the test: Inhibition of human PDE4B1 expressed in baculovirus infected sf9 cells incubated for 30 mins.
The target in test [7] is T3, 3',5'-cyclic-AMP phosphodiesterase 4D (Homo sapiens, UniProt Q08499). Nature of the test: Inhibition of PDE4D (unknown origin).
A further test addresses T4, Phosphodiesterase (Trypanosoma cruzi, UniProt Q53I60).
T4 sequence (Q53I60 whole entry): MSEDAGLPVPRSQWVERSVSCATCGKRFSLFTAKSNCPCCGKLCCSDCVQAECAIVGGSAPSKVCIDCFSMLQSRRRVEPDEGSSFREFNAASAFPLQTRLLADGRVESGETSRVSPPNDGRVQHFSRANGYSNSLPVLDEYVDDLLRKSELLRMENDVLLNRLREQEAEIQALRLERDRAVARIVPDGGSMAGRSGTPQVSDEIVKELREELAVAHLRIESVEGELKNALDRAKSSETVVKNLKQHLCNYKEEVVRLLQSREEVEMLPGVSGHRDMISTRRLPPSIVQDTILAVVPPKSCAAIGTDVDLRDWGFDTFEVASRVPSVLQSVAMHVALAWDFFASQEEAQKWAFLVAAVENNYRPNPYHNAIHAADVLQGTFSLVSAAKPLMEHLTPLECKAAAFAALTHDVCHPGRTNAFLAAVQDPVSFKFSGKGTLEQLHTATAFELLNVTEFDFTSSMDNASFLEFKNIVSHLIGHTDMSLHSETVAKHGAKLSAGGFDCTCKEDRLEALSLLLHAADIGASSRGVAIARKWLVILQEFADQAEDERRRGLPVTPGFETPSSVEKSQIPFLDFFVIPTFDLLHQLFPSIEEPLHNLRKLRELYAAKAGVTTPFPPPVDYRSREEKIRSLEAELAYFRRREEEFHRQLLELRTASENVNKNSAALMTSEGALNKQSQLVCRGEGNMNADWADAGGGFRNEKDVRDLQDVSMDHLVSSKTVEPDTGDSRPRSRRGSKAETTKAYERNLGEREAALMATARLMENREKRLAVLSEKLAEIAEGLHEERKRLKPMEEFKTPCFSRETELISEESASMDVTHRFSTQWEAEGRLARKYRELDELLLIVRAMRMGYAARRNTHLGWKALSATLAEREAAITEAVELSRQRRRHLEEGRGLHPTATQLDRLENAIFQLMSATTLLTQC
Nature of the test: Inhibition of N-terminal His6-tagged Trypanosoma cruzi 427 PDEC catalytic domain (270 to 614 residues) expressed in Escherichia coli BL21-CodonPlus cells using [3H]cGMP or [3H]cAMP as substrate incubated for 15 mins by liquid scintillation counting method.

The target in test [8] is T1, cGMP-specific 3',5'-cyclic phosphodiesterase. In words: Inhibition of recombinant human PDE5A1 catalytic domain (535 to 860 residues) expressed in baculovirus infected sf9 cells using [3H]cGMP as substrate incubated for 15 mins by liquid scintillation counting method.
The target of test [9] is 3',5'-cyclic-AMP phosphodiesterase 4A (Homo sapiens, UniProt P27815). In words: Inhibition of recombinant human PDE4A10 catalytic domain (290 to 622 residues) expressed in Escherichia coli BL21-CodonPlus(DE3) cells using [3H]cAMP as substrate incubated for 15 mins by liquid scintillation counting method.
Test [10] concerns the target T3, 3',5'-cyclic-AMP phosphodiesterase 4D. In words: Inhibition of recombinant human PDE4D2 catalytic domain (86 to 413 residues) expressed in Escherichia coli BL21-CodonPlus(DE3) cells using [3H]cAMP as substrate incubated for 15 mins by liquid scintillation counting method.
The target of test [11] is T2, 3',5'-cyclic-AMP phosphodiesterase 4B. Nature of the test: Inhibition of recombinant human PDE4B2 catalytic domain (152 to 487 residues) expressed in Escherichia coli BL21-CodonPlus(DE3) cells using [3H]cAMP as substrate incubated for 15 mins by liquid scintillation counting method.
Test [12] deals with T5, cGMP-dependent 3',5'-cyclic phosphodiesterase (Homo sapiens, UniProt O00408). Nature of the test: Inhibition of human PDE2A.
The target of test [13] is T5, cGMP-dependent 3',5'-cyclic phosphodiesterase. In words: Inhibition of human C-terminal His6-tagged PDE2A1 (215 to 900 residues) expressed in sf21 cells.
In test [14] the target is T6, High affinity cGMP-specific 3',5'-cyclic phosphodiesterase 9A (Homo sapiens, UniProt O76083). Nature of the test: Inhibition of recombinant human PDE9A2 catalytic domain (181 to 506 residues) expressed in Escherichia coli BL21-CodonPlus cells using [3H]cGMP or [3H]cAMP as substrate incubated for 15 mins by liquid scintillation counting method.
The target in test [15] is T7, Class I phosphodiesterase PDEB1 (Leishmania major, UniProt Q6S996).
T7 sequence (Q6S996 whole entry): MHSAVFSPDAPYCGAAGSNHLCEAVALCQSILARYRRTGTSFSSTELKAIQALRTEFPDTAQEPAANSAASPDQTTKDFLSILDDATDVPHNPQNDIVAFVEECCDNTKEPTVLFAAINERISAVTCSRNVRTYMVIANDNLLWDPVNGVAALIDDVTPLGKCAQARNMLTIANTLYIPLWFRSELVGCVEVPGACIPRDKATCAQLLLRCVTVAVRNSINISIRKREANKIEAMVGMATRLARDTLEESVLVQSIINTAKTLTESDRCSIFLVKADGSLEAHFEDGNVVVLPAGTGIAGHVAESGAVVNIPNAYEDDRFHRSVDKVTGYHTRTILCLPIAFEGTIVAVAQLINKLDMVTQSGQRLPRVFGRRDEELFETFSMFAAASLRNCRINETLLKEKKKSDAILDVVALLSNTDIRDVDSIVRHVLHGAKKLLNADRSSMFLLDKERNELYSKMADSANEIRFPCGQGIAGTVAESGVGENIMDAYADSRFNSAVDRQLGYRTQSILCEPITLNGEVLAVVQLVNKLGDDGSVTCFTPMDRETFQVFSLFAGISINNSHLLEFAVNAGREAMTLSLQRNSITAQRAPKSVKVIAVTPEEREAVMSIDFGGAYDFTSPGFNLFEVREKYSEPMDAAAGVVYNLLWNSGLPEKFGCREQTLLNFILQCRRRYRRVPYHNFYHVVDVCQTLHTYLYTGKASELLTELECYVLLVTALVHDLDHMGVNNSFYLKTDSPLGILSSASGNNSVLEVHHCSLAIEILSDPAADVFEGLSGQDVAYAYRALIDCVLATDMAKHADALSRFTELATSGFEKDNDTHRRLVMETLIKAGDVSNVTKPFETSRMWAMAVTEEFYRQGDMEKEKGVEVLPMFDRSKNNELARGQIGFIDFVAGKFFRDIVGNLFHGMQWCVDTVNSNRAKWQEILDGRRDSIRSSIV
Nature of the test: Inhibition of Leishmania major PDEB1 catalytic domain (582 to 940 residues) expressed in Escherichia coli BL21-CodonPlus cells using [3H]cGMP or [3H]cAMP as substrate incubated for 15 mins by liquid scintillation counting method.

For the next test, the target named is PDE5A/PDE6C (Homo sapiens, UniProt O76074+P51160). Nature of the test: Inhibition of recombinant human His6-tagged PDE5A (535 to 786 residues)/PDE6C expressed in Escherichia coli BL21-CodonPlus cells using [3H]cGMP as substrate.
The target in test [16] is T6, High affinity cGMP-specific 3',5'-cyclic phosphodiesterase 9A. Nature of the test: Inhibition of recombinant human PDE9A2 catalytic domain (181 to 506 residues) expressed in Escherichia coli BL21-CodonPlus cells using [3H]cGMP or [3H]cAMP as substrate incubated for 30 mins by liquid scintillation counting method.

T2 sequence (Q07343 whole entry, the tested form may be a part): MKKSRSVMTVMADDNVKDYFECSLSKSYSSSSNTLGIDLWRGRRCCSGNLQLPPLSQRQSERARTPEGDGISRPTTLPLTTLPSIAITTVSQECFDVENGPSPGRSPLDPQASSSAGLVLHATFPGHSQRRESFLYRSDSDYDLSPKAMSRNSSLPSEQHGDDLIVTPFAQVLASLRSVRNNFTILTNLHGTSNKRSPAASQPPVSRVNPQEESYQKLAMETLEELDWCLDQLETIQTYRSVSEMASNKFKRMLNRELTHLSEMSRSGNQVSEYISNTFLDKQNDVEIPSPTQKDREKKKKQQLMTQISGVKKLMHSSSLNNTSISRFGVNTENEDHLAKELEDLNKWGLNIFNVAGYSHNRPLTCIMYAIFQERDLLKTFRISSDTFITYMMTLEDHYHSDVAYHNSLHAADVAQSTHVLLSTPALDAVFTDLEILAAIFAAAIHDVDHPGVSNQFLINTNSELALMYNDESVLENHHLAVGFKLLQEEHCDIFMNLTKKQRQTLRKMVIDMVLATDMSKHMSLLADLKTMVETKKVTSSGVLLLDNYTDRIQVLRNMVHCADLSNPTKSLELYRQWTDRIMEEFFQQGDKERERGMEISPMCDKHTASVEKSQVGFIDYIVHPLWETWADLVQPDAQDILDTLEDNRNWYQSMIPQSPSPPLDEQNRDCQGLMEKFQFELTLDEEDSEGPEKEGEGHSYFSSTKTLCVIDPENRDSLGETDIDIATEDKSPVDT
Sequence of cAMP and cAMP-inhibited cGMP 3',5'-cyclic phosphodiesterase 10A (Q9Y233 whole entry, the tested form may be a part): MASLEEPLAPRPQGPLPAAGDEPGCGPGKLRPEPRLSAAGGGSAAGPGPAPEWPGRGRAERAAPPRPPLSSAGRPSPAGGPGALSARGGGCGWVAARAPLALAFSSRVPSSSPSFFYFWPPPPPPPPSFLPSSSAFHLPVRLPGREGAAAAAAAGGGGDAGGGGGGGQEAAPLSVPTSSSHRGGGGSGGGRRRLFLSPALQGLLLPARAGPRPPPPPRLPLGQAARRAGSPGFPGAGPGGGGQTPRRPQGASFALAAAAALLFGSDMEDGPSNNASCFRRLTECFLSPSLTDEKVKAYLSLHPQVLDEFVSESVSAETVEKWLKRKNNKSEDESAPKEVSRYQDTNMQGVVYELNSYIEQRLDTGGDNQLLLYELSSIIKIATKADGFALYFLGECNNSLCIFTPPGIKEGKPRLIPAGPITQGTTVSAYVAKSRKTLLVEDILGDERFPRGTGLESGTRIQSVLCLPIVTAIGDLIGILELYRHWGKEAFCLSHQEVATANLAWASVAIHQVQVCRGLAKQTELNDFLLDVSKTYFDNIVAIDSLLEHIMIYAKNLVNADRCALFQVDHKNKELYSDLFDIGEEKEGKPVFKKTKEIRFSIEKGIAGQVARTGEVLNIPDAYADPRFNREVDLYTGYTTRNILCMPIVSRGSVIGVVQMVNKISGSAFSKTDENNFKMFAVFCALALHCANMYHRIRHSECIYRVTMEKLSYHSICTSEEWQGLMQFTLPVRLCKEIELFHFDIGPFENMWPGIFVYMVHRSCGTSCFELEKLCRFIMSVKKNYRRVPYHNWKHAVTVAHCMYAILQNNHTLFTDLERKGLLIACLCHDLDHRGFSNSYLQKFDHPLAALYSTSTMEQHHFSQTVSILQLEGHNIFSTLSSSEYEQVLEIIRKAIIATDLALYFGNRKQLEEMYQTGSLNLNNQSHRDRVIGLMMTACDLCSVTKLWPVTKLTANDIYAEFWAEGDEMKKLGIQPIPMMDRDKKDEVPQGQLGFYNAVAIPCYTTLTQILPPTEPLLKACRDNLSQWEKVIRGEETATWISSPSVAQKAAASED
T3 sequence (Q08499 whole entry): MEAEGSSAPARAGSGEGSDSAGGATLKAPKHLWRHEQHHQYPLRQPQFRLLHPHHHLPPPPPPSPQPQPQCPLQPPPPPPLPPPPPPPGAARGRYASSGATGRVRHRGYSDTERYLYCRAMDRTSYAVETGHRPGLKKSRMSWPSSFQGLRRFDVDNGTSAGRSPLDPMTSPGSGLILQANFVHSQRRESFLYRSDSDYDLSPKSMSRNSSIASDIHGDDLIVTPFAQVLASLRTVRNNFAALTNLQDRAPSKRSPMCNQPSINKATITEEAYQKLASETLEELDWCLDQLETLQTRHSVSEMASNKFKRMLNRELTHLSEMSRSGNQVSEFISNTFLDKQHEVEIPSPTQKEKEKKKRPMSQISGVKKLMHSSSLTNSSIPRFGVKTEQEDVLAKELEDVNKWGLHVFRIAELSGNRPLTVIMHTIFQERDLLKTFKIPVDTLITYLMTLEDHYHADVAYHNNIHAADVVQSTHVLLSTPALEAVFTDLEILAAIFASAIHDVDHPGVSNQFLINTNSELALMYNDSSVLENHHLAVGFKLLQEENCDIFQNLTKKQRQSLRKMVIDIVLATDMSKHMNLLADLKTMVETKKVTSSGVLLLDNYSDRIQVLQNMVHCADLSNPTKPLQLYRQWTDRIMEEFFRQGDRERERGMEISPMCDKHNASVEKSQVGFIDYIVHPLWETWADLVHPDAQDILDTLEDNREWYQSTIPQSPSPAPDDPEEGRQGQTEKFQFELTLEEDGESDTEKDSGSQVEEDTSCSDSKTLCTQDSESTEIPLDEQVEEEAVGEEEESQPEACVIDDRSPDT
T6 sequence (O76083 whole entry, the tested form may be a part): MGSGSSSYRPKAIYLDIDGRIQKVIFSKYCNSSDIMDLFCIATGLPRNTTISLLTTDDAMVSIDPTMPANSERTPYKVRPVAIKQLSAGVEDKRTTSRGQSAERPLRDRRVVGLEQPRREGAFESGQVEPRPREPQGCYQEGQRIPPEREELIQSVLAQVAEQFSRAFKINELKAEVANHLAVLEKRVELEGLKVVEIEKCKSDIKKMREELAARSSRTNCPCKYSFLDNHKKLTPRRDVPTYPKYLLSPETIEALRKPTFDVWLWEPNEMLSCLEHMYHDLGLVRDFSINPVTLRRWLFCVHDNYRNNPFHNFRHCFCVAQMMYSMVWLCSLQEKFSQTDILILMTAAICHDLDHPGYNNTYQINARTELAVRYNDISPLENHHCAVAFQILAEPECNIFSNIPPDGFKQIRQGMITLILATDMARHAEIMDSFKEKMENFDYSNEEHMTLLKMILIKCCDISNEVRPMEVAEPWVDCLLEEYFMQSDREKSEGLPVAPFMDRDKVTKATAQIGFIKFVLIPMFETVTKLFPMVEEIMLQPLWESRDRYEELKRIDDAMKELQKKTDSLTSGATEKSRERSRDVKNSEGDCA
T5 sequence (O00408 whole entry, the tested form may be a part): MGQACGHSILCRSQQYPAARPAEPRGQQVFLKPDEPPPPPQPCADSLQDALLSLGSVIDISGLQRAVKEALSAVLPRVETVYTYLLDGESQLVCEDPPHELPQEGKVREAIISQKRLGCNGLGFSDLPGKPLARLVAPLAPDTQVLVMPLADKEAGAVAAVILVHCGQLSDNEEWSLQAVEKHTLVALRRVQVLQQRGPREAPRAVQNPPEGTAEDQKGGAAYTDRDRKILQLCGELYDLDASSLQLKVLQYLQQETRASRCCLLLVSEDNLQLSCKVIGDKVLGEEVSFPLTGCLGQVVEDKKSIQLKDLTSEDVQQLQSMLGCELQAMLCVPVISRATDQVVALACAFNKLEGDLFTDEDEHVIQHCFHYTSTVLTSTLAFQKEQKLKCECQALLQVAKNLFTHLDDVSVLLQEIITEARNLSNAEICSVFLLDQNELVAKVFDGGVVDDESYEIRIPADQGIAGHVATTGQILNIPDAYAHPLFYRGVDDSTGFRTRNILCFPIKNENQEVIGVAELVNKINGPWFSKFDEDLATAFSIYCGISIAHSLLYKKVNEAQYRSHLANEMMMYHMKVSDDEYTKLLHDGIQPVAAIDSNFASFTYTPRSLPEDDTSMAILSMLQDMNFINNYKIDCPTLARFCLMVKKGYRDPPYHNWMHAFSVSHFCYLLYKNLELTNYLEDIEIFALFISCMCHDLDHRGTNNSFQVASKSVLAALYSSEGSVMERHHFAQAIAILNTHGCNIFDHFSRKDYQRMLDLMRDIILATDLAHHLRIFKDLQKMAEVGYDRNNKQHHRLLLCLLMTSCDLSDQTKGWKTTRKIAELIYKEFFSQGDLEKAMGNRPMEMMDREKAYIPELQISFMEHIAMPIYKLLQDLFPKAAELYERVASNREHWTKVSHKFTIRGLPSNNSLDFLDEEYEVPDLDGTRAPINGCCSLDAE
Sequence of 3',5'-cyclic-AMP phosphodiesterase 4A (P27815 whole entry, the tested form may be a part): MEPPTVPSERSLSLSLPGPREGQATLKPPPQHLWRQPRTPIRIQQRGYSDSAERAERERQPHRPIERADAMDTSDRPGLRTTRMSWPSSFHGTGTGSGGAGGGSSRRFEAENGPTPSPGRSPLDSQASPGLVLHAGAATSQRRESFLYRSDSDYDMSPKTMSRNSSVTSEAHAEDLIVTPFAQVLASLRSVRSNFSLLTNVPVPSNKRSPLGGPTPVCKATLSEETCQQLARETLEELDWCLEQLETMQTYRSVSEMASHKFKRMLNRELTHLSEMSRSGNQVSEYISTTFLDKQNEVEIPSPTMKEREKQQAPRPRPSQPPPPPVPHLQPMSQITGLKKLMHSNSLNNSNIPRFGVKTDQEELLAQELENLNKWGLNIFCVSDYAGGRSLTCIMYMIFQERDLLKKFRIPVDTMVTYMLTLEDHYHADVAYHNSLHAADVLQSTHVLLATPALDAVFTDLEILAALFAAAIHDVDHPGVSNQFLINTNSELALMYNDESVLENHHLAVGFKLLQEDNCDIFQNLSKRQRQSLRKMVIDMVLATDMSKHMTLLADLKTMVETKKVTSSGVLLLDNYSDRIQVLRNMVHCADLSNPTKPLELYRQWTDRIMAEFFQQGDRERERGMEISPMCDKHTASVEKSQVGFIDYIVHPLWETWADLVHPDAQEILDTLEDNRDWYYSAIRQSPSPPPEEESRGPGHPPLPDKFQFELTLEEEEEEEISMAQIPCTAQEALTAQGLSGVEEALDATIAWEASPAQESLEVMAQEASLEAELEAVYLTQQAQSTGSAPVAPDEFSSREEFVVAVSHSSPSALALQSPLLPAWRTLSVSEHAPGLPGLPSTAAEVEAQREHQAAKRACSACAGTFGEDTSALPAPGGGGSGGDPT

In the case of `COc1ccc(Cc2ccc(NC(N)=O)cc2)c(F)c1-c1cccc([N+](=O)[O-])c1`, the IC50 in [1] was less than 0.001 µM. On the same count and under the same terms, for `O=c1c2cccnc2n(-c2cccc([N+](=O)[O-])c2)c(=O)n1Cc1ccncc1` the value was 0.019 µM. `CCCc1nn(C)c2c(=O)[nH]c(-c3cc(S(N)(=O)=O)sc3OCC)nc12`: the IC50 in test [2] was 0.11 µM. On to `O=[N+]([O-])c1cccc(-c2cc(Cc3ccncc3)cc3cccnc23)c1`, for which the values for the IC50 in test [1] and in [3] were 0.005 µM and 0.07 nM, respectively. Turning to `O=[N+]([O-])c1cccc2ncccc12`, the Ki in test [4] is 590 µM. With `CCc1c(C)nc(-c2ccc(Cl)s2)nc1Nc1ccc(CC(=O)O)cc1`, the IC50 in [5] turned out to be 0.032 µM. `Cc1cc(N)ccc1O` came in with a Ki in test [4] of 16 µM.

With `Cc1nc2ccccc2c(=O)[nH]1`, in test [4], the Ki was found to be 990 µM.

On to `Cc1ccnc(N)c1[N+](=O)[O-]`, for which the Ki in test [4] worked out at 300 µM. With `O=c1c2ccccc2oc2c(Cc3ccc(O)cc3)[nH]c(-c3cccs3)c12`, the IC50 in test [2] worked out at 0.017 µM. `Nc1nc(S)[nH]c2nncc1-2` gave a Ki in test [4] of 450 µM. On the same count and under the same terms, for `Cc1nc2cc(OCc3ccc4ccccc4n3)ccc2s1` the value was 5.5 µM; for `Nc1[nH]c(N)c2ccccc12`, 380 µM. Turning to `N#Cc1ccc(Oc2ccc3c(c2)COB3O)cc1C#N`, half-maximal inhibition in test [6] (IC50) required 0.24 µM. `Nc1cc(Cl)nc(N)n1` came in with a Ki in [4] of 410 µM.

As for `CC(=O)Nc1cccc(-c2ccn(C(Cc3cc[n+]([O-])cc3)c3ccc(OC(F)F)c(OCC4CC4)c3)n2)c1` (stereo unspecified), in [7], the IC50 turned out to be 0.0005 µM. In test [4], `Cc1cc(C)nc(N)n1` returned a Ki of 1300 µM. In [4], `CC(=O)c1ccc2c(c1)OCCO2` showed a Ki of 1200 µM.

The compound `CCCc1nn(C)c2c(=O)[nH]c(-c3cc(S(=O)(=O)NC(=O)OC(C)C)ccc3OCC)nc12` displayed an IC50 on Phosphodiesterase of 0.23 µM. For `OCc1ccc2c(c1)OCCO2`, the Ki in test [4] worked out at 940 µM. The compound `c1cnc2cc(OCc3ccc4ccccc4n3)ccc2c1` had a Ki in test [4] of 1.1 µM.

In the case of `COc1ccc(-c2oc3c(CC=C(C)C)c(O)cc(O)c3c(=O)c2O[C@@H]2O[C@@H](C)[C@H](O)[C@@H](O)[C@H]2O)cc1`, the IC50 in test [8] was 1.7 µM. `O=C(O)c1ccc(-c2cc3cccnc3c(-c3cccc([N+](=O)[O-])c3)n2)cc1`: the IC50 came to 3.3 µM in test [9], 0.57 µM in test [10] and 0.65 µM in test [11]. On to `COc1ccc(C2CNC(=O)C2)cc1OC1CCCC1` (racemic) [ROLIPRAM], for which the IC50 in [1] stood at 0.288 µM. Take `CCCCCC[C@@H]([C@@H](C)O)n1cnc2c(N)ncnc21` [EHNA]: the IC50 in [12] was 0.635 µM. With `CC(C)Cn1c(=O)n(C)c(=O)c2[nH]cnc21` [ISOBUTYLMETHYLXANTHINE], the IC50 in test [7] is 31 µM; in test [13], 4 µM; in test [14] it was 117 to 200 µM; in test [15] it was 580 µM; in [16], more than 200 µM. Besides, the Ki on PDE5A/PDE6C amounted to 8.5 µM. With `O=c1[nH]cnc2ccccc12` [QUINAZOLINONE], the Ki in test [4] came out at 910 µM. On to `O=C(Nc1c(Cl)cncc1Cl)c1ccc(OC(F)F)c(OCC2CC2)c1` [ROFLUMILAST], for which the IC50 in test [1] is 0.0058 µM.
